{
  "source": "paper PMC5762315",
  "about": "“Inhibition of polo-like kinase 4 (PLK4): a new therapeutic option for rhabdoid tumors and pediatric medulloblastoma” (Oncotarget, 2017)",
  "assay_in_all_cases": "biochemical",
  "assay_type_in_all_cases": "biochemical",
  "key": {"various kinases [1]": {"biological_target": "T1, various kinases (Homo sapiens, UniProt Q9HBY8)", "T1 sequence (Q9HBY8 1-367)": "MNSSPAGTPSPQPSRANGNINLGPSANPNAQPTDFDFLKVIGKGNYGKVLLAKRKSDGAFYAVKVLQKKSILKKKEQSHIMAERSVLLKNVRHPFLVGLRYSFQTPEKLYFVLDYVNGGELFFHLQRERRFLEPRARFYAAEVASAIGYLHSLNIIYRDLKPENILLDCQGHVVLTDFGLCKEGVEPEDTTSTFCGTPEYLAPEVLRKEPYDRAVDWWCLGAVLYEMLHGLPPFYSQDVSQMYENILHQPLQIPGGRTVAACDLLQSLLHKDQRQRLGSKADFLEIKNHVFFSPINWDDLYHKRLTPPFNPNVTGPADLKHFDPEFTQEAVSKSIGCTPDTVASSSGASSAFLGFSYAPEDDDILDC", "details": "kinase SGK2; ZLYTE"}, "various kinases [2]": {"biological_target": "various kinases (Homo sapiens, UniProt Q9Y6M4)", "sequence (Q9Y6M4 whole entry)": "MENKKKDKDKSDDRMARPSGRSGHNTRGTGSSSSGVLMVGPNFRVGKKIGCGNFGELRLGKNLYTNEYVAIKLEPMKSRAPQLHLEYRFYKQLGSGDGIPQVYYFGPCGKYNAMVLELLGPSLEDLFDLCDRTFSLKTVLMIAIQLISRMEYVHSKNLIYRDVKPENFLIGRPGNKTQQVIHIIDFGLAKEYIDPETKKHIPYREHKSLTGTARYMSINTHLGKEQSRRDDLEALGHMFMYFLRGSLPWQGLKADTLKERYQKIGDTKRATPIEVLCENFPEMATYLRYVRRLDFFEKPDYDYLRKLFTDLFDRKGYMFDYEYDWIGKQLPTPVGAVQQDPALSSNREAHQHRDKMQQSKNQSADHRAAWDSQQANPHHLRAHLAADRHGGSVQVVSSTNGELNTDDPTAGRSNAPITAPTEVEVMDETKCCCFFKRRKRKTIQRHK", "details": "CSNK1G3 (CK1 gamma 3)"}, "various kinases [3]": {"biological_target": "various kinases (Homo sapiens, UniProt Q9P289)", "details": "MST4"}, "various kinases [4]": {"biological_target": "various kinases (Homo sapiens, UniProt P54646)", "sequence (P54646 whole entry)": "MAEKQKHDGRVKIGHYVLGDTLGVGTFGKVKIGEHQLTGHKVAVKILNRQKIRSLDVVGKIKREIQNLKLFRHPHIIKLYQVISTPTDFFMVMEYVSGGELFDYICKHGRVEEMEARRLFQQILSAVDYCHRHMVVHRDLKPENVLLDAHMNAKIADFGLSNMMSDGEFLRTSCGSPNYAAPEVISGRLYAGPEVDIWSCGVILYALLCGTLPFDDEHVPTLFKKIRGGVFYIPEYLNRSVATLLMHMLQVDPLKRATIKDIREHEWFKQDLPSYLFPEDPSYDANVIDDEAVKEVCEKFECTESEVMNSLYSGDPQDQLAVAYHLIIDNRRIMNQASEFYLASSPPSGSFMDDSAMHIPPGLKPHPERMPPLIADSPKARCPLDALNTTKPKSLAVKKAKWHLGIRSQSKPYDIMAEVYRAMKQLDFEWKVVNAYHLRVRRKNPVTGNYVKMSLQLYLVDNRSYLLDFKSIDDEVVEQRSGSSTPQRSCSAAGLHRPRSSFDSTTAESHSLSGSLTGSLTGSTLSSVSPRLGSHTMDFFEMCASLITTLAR"}, "various kinases [5]": {"biological_target": "various kinases (Homo sapiens, UniProt P07949)", "sequence (P07949 29-1114)": "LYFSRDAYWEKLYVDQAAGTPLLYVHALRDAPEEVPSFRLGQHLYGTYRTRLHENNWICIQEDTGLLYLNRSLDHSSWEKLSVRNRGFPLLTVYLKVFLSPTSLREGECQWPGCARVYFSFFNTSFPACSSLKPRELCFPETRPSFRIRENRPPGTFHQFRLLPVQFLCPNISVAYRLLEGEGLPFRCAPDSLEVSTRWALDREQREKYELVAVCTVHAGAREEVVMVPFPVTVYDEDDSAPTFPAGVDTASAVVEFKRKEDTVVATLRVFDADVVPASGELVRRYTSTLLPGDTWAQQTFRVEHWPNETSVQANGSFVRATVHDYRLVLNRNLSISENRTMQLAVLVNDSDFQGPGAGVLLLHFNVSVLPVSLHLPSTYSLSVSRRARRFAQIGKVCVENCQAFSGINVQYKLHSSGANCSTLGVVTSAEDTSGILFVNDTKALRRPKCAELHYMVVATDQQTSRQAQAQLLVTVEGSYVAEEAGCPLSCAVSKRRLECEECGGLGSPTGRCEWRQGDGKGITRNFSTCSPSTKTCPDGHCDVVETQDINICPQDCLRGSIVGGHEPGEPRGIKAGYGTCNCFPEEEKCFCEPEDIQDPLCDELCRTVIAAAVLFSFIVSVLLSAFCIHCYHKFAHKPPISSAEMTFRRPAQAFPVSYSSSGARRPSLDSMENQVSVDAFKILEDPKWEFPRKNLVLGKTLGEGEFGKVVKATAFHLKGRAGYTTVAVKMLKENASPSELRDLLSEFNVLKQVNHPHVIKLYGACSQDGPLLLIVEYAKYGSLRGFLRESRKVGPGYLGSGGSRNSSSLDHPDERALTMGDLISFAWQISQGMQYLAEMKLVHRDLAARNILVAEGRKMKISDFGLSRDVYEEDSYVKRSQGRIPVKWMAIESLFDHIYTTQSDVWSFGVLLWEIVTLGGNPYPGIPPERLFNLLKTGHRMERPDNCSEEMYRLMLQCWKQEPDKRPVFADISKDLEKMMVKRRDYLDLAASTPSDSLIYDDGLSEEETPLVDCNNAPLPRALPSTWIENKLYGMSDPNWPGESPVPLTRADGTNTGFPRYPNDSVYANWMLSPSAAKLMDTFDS", "details": "kinase RET; ZLYTE"}, "various kinases [6]": {"biological_target": "various kinases (Homo sapiens, UniProt P15735)", "details": "PHKG2"}, "various kinases [7]": {"tested_on": "various kinases", "details": "for % Inhibition Average / % Inhibition Duplicate #1 / % Inhibition Duplicate #2: ZLYTE"}, "various kinases [8]": {"biological_target": "various kinases (Homo sapiens, UniProt Q12851)", "details": "MAP4K2 (GCK)"}, "various kinases [9]": {"biological_target": "various kinases (Homo sapiens, UniProt Q9UPE1)", "sequence (Q9UPE1 whole entry)": "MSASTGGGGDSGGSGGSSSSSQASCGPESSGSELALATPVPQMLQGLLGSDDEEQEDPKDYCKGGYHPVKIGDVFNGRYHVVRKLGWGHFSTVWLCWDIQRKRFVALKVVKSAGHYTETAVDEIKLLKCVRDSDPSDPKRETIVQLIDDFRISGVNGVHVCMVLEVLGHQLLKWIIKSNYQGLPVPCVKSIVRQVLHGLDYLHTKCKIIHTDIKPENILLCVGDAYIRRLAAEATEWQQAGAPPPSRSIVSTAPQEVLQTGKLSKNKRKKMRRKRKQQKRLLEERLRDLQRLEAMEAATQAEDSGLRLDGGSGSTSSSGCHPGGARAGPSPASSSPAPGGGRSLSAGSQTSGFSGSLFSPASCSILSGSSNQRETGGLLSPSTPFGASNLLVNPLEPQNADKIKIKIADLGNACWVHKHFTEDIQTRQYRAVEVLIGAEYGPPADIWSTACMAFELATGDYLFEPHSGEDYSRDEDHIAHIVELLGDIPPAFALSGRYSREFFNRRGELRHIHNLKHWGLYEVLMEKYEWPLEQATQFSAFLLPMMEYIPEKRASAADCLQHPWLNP", "details": "kinase STK23 (MSSK1); ZLYTE"}, "various kinases [10]": {"biological_target": "various kinases (Homo sapiens, UniProt O15530)", "sequence (O15530 whole entry)": "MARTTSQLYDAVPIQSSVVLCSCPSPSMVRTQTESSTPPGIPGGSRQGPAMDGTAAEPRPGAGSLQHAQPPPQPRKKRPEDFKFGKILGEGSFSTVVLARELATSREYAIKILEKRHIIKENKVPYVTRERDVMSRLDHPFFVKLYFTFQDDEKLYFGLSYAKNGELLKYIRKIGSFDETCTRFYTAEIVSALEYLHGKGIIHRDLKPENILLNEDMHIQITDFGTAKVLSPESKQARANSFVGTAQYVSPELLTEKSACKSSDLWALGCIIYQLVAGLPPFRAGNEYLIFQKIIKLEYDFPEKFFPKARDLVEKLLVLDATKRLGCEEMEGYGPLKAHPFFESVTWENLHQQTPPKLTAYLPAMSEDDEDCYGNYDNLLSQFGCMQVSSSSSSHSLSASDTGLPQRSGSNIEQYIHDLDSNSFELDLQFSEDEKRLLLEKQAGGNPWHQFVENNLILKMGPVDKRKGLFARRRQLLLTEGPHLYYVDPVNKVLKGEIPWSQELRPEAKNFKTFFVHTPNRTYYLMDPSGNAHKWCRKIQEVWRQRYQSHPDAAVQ"}, "various kinases [11]": {"biological_target": "various kinases (Homo sapiens, UniProt P31749)", "details": "AKT1 (PKB alpha)"}, "various kinases [12]": {"biological_target": "various kinases (Homo sapiens, UniProt P06239)", "details": "LCK"}, "various kinases [13]": {"biological_target": "various kinases (Homo sapiens, UniProt Q13627)", "details": "DYRK1A"}, "various kinases [14]": {"biological_target": "various kinases (Homo sapiens, UniProt Q9H2X6)", "details": "HIPK2"}, "various kinases [15]": {"biological_target": "various kinases (Homo sapiens, UniProt P22607, V555M)", "details": "FGFR3 V555M"}, "various kinases [16]": {"biological_target": "various kinases (Homo sapiens, UniProt P78368)", "details": "CSNK1G2 (CK1 gamma 2)"}, "various kinases [17]": {"biological_target": "various kinases (Homo sapiens, UniProt P09619)", "details": "PDGFRB (PDGFR beta)"}, "various kinases [18]": {"biological_target": "various kinases (Homo sapiens, UniProt O75914)", "details": "PAK3"}, "various kinases [19]": {"biological_target": "various kinases (Homo sapiens, UniProt P08631)", "details": "HCK"}, "various kinases [20]": {"biological_target": "T2, various kinases (Homo sapiens, UniProt Q13976)", "T2 sequence (Q13976 1-671)": "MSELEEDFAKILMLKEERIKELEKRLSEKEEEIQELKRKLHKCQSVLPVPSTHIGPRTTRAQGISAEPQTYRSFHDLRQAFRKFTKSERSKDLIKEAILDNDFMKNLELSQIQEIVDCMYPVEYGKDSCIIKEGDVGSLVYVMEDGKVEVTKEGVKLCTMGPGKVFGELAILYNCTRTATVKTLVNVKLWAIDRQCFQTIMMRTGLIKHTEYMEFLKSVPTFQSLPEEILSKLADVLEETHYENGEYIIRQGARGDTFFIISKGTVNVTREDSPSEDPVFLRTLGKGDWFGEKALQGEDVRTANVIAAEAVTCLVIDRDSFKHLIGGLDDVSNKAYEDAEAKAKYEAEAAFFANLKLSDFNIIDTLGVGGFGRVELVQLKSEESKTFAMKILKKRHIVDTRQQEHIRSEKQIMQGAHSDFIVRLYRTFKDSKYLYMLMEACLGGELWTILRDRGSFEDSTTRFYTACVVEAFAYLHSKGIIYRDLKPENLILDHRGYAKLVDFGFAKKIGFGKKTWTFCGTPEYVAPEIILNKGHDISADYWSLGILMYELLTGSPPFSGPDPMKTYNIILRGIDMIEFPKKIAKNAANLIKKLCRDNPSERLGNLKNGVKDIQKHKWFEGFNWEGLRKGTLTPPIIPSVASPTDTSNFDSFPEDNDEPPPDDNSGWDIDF", "details": "kinase PRKG1; ZLYTE"}, "various kinases [21]": {"biological_target": "various kinases (Homo sapiens, UniProt Q8N568)", "details": "DCAMKL2 (DCK2)"}, "various kinases [22]": {"biological_target": "various kinases (Homo sapiens, UniProt P07949, S891A)", "sequence (P07949 29-1114 S891A)": "as the sequence (P07949 29-1114) above, with S863A counted along it", "details": "kinase RET S891A; ZLYTE"}, "various kinases [23]": {"biological_target": "various kinases (Homo sapiens, UniProt Q9Y6E0)", "sequence (Q9Y6E0 whole entry)": "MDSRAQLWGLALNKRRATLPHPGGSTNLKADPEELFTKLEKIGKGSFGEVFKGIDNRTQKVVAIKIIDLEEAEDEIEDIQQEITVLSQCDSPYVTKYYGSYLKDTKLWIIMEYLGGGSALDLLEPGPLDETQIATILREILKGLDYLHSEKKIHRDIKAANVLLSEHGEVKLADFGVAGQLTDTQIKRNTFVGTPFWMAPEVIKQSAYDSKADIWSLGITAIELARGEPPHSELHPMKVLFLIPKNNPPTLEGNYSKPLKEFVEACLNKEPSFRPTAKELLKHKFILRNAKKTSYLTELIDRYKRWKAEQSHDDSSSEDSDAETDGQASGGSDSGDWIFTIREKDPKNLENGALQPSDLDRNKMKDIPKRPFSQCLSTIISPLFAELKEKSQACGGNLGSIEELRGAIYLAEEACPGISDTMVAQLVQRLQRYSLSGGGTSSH", "details": "kinase STK24 (MST3); ZLYTE"}, "various kinases [24]": {"biological_target": "various kinases (Homo sapiens, UniProt Q04912)", "sequence (Q04912 25-1400)": "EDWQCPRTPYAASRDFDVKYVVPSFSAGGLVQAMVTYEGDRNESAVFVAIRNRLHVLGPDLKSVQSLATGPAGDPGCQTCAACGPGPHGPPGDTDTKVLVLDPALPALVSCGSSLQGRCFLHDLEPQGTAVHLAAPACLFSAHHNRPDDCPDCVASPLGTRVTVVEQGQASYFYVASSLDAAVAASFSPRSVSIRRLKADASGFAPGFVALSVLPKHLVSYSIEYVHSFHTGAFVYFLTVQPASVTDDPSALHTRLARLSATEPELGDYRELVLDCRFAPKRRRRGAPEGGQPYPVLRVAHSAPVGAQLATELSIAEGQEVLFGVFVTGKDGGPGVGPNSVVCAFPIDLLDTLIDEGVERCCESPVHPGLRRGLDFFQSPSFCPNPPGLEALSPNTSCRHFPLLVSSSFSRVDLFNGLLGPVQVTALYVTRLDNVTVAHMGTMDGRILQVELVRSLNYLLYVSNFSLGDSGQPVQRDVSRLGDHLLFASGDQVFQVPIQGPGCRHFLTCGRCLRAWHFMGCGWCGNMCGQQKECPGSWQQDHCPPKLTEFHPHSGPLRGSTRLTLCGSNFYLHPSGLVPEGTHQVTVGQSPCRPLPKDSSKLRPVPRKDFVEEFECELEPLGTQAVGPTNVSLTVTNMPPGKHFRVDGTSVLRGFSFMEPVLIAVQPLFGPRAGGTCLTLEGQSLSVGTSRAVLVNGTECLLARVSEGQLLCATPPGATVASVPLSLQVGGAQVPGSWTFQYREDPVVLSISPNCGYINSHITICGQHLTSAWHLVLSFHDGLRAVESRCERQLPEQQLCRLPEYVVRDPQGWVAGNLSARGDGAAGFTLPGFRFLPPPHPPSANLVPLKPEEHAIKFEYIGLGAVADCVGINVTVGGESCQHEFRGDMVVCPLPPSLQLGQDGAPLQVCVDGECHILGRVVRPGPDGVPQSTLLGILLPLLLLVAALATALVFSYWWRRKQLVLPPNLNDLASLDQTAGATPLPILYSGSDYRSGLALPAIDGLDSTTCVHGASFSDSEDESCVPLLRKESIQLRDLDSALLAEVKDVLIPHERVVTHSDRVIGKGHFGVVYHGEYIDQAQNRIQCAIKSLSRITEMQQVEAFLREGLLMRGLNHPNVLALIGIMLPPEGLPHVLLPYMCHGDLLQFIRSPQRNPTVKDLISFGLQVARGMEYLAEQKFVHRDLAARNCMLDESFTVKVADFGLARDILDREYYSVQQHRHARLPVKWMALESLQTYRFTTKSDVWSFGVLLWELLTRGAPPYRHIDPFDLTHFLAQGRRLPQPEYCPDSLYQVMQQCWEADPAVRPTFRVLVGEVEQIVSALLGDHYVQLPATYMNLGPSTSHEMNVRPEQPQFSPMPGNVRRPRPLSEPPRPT", "details": "MST1R (RON)"}},
  "note": "Where “and” joins values, the source holds several entries; their conditions need not be identical. Equal entries are not always repeated.",
  "data": [
    {"smiles": "COc1ccc2c(c1)[C@]1(C[C@H]1c1ccc3c(/C=C/c4ccc(CN5C[C@@H](C)O[C@@H](C)C5)cc4)n[nH]c3c1)C(=O)N2", "note": "[CFI-400945]", "values": [
      {"measurement": "% Inhibition Average", "setting": "various kinases [1]", "result": 5, "unit": "%"},
      {"measurement": "% Inhibition Duplicate #1", "setting": "various kinases [1]", "result": 4, "unit": "%"},
      {"measurement": "% Inhibition Duplicate #2", "setting": "various kinases [1]", "result": 5, "unit": "%"},
      {"measurement": "% Inhibition", "setting": "various kinases [2]", "result": "2% and -1%"},
      {"measurement": "% Inhibition", "setting": "various kinases [3]", "result": "14% and 10%"},
      {"measurement": "% Inhibition", "setting": "various kinases [4]; AMPK (A2/B1/G2)", "result": "27% and 22%"},
      {"measurement": "% Inhibition", "setting": "various kinases [4]; AMPK (A2/B1/G3)", "result": "9% and 15%"},
      {"measurement": "% Inhibition", "setting": "various kinases [4]; AMPK (A2/B2/G3)", "result": "9% and 10%"},
      {"measurement": "% Inhibition", "setting": "various kinases [4]; AMPK A2/B1/G1", "result": "5% and 6%"},
      {"measurement": "% Inhibition Average", "setting": "various kinases [5]", "result": 16, "unit": "%"},
      {"measurement": "% Inhibition Duplicate #1", "setting": "various kinases [5]", "result": 14, "unit": "%"},
      {"measurement": "% Inhibition Duplicate #2", "setting": "various kinases [5]", "result": 18, "unit": "%"},
      {"measurement": "% Inhibition", "setting": "various kinases [6]", "result": "8% and 7%"},
      {"measurement": "% Inhibition", "setting": "various kinases [7]; LYN B", "result": "7% and 9%"},
      {"measurement": "% Inhibition Average", "setting": "various kinases [7]; kinase PRKCB2 (PKC beta II)", "result": 13, "unit": "%"},
      {"measurement": "% Inhibition Duplicate #1", "setting": "various kinases [7]; kinase PRKCB2 (PKC beta II)", "result": 12, "unit": "%"},
      {"measurement": "% Inhibition Duplicate #2", "setting": "various kinases [7]; kinase PRKCB2 (PKC beta II)", "result": 14, "unit": "%"},
      {"measurement": "% Inhibition Average", "setting": "various kinases [7]; kinase SRC N1", "result": 14, "unit": "%"},
      {"measurement": "% Inhibition Duplicate #1", "setting": "various kinases [7]; kinase SRC N1", "result": 14, "unit": "%"},
      {"measurement": "% Inhibition Duplicate #2", "setting": "various kinases [7]; kinase SRC N1", "result": 14, "unit": "%"},
      {"measurement": "% Inhibition", "setting": "various kinases [8]", "result": "43% and 39%"},
      {"measurement": "% Inhibition Average", "setting": "various kinases [9]", "result": -1, "unit": "%"},
      {"measurement": "% Inhibition Duplicate #1", "setting": "various kinases [9]", "result": -1, "unit": "%"},
      {"measurement": "% Inhibition Duplicate #2", "setting": "various kinases [9]", "result": -2, "unit": "%"},
      {"measurement": "% Inhibition", "setting": "various kinases [10]; PDK1", "result": "3% and 2%"},
      {"measurement": "% Inhibition", "setting": "various kinases [10]; PDK1 Direct", "result": 6, "unit": "%"},
      {"measurement": "% Inhibition", "setting": "various kinases [11]", "result": "4% and 3%"},
      {"measurement": "% Inhibition", "setting": "various kinases [12]", "result": "39% and 40%"},
      {"measurement": "% Inhibition", "setting": "various kinases [13]", "result": "2% and 4%"},
      {"measurement": "% Inhibition", "setting": "various kinases [14]", "result": "2% and 0%"},
      {"measurement": "% Inhibition", "setting": "various kinases [15]", "result": 56, "unit": "%"},
      {"measurement": "% Inhibition", "setting": "various kinases [16]", "result": "1% and 3%"},
      {"measurement": "% Inhibition", "setting": "various kinases [17]", "result": "3% and 4%"},
      {"measurement": "% Inhibition", "setting": "various kinases [18]", "result": "11% and 5%"},
      {"measurement": "% Inhibition", "setting": "various kinases [19]", "result": "13% and 11%"},
      {"measurement": "% Inhibition Average", "setting": "various kinases [20]", "result": 5, "unit": "%"},
      {"measurement": "% Inhibition Duplicate #1", "setting": "various kinases [20]", "result": 6, "unit": "%"},
      {"measurement": "% Inhibition Duplicate #2", "setting": "various kinases [20]", "result": 4, "unit": "%"},
      {"measurement": "% Inhibition", "setting": "various kinases [21]", "result": "-7% and -1%"},
      {"measurement": "% Inhibition Average", "setting": "various kinases [22]", "result": 55, "unit": "%"},
      {"measurement": "% Inhibition Duplicate #1", "setting": "various kinases [22]", "result": 59, "unit": "%"},
      {"measurement": "% Inhibition Duplicate #2", "setting": "various kinases [22]", "result": 52, "unit": "%"},
      {"measurement": "% Inhibition Average", "setting": "various kinases [23]", "result": 7, "unit": "%"},
      {"measurement": "% Inhibition Duplicate #1", "setting": "various kinases [23]", "result": 7, "unit": "%"},
      {"measurement": "% Inhibition Duplicate #2", "setting": "various kinases [23]", "result": 7, "unit": "%"},
      {"measurement": "% Inhibition", "setting": "various kinases [24]", "result": "8% and 9%"}
    ]}
  ]
}
